Source: patent US10632127B2, “Targeted notch pathway inhibitors” (Hoffmann-La Roche Inc., priority 2015, dated 2020)
Structures can show the parent of a compound that is named as a salt.

Columns and labels:
[1] = biological target: Notch signal transduction pathway; assay: In vitro Notch signal transduction pathway activity assay (DR215/F2 luciferase reporter); type: cell-based, human
Description: The compounds were dissolved in dimethyl sulfoxide (DMSO) at 10 mM stock solution, aliquoted and stored at −4° C. until use, then diluted in PBS or cell culture medium. In the experimental settings, controls containing increasing concentrations of DMSO, corresponding to the amount of DMSO of the diluted compounds were always included. For in vivo experiments, the compounds were dissolved in 0.9% NaCl, incubated 30 min at 40° C. and sonicated for 5 min.
The requirement of proteolytic activation of the prodrugs to inhibit Notch cleavage by the γ-secretase, was investigated using a reporter assay (Table 3). The DR215/F2 cell line expresses a reporter construct designed to monitor the activity of the Notch signal transduction pathway. The DR215/F2 cell line 39 carries two transgenes: the firefly luciferase reporter gene expressed under the control of the Gal4 promoter and the human Notch1 activator gene fused with the yeast Gal4 transcription factor. This assay confirmed that the prodrugs were able to inhibit γ-secretase and the activation of the Notch pathway. The DR215/F2 cell reporter assay was also used to determine the IC50 for blockade of the Notch pathway by all the compounds designed and prepared.
The values were determined using the 215/F2 reporter cell line for Notch activation by the γ-secretase. All values are the mean of at least 3 experiments.
The preparation and characterization of rat brain-derived EC219 endothelial cells have been described in Juillerat-Jeanneret, L. et al. In Vitro Cell. Dev. Biol. 1992, 28A, 537-543. These cells express high levels of APA and γ-GT activities and can be used for determining kinetics in living cells, and were chosen as APA- and γ-GT-positive representative cell models. EC219 cells were grown in DMEM medium containing 1 g/l glucose, 10% heat-inactivated fetal calf serum (FCS, EuroClone, UK) supplemented with 100 U/mL penicillin and 100 μg/mL streptomycin (P/S) on uncoated cell culture plastic ware. The HEK293 and HK2 human kidney cells are available from the ATCC (American Tissue Culture Collection, Manassas, Va., USA). HEK293 cells were grown on uncoated cell culture plastic ware in Iscove modified Dulbecco medium (IMDM, Life Technologies) containing 10% FCS and P/S. HK2 cells were grown on uncoated cell culture plastic ware in DMEM/F-12 GlutaMAX medium (Gibco) containing 5% FCS, P/S, 1% ITS (1.0 mg/ml bovine insulin, 0.55 mg/ml human transferrin and 0.5 μg/ml sodium selenite, Sigma-Aldrich) and 5 ng/ml hydrocortisone. The human HEK293-derived DR215/F2 embryonic kidney cell line, stably transfected with pFR Luc and APP-Notch Gal (plasmid DR215) as described in WO 2006/061136 A2 and Brockhaus, M. Neuroreport 1998 9, 1481-1486, were maintained using IMDM with 10% FCS supplemented with P/S and kept under double-selection with 150 μg/ml G-418 and 50 μg/ml hygromycin B on coated (1:100 Poly-L-lysine) cell culture plastic ware. In this assay, the Notch-Gal4 protein is bound to the cell membrane via its trans-membrane domain. The Notch intracellular domain is released by proteolytic cleavage mediated by the γ-secretase and moves to the cell nucleus where it activates the reporter luciferase gene transcript. Inhibition of γ-secretase thus decreases luciferase activity. Briefly, cultures were grown in 96-well microplates to 80% confluence; the cells were then washed in PBS and exposed to decreasing concentrations of the γ-secretase-inhibitor analogues in complete IMDM culture medium without red phenol at 37° C. for 19 h. Then 75 μl of supernatant from each well was removed and the luciferase activity was determined by adding 25 μl of Steady-Glo luciferase assay reagent (Promega).

EC219 cells = assay: Extracellular release of the γ-secretase inhibitor from prodrugs by EC219 endothelial cells; type: in vitro ADME, rat; conditions: HEK293, 215/F2, HK2 and EC219 cells, 20 μM in PBS, 19 h
Description: FIG. 2A. Extracellular release of amine-SecrI (11a) metabolites for α-Glu- and γ-Glu-secretase inhibitor prodrugs. The prodrugs were added to the cells for 19 h, then the supernatants were harvested and analyzed for SecrI (8), amine-SecrI (11a), the prodrugs 13a, 13b, 15a, 15b and (for 13a, 15a) also the correponding deacetylated metabolites.
Cpd added: 20 μM in PBS, 19 h incubation. SecrI (8) is stable when added to cells for 19 h; free SecrI (8) was never detected from any prodrug.
The preparation and characterization of rat brain-derived EC219 endothelial cells have been described in Juillerat-Jeanneret, L. et al. In Vitro Cell. Dev. Biol. 1992, 28A, 537-543. These cells express high levels of APA and γ-GT activities and can be used for determining kinetics in living cells, and were chosen as APA- and γ-GT-positive representative cell models. EC219 cells were grown in DMEM medium containing 1 g/l glucose, 10% heat-inactivated fetal calf serum (FCS, EuroClone, UK) supplemented with 100 U/mL penicillin and 100 μg/mL streptomycin (P/S) on uncoated cell culture plastic ware. The HEK293 and HK2 human kidney cells are available from the ATCC (American Tissue Culture Collection, Manassas, Va., USA). HEK293 cells were grown on uncoated cell culture plastic ware in Iscove modified Dulbecco medium (IMDM, Life Technologies) containing 10% FCS and P/S. HK2 cells were grown on uncoated cell culture plastic ware in DMEM/F-12 GlutaMAX medium (Gibco) containing 5% FCS, P/S, 1% ITS (1.0 mg/ml bovine insulin, 0.55 mg/ml human transferrin and 0.5 μg/ml sodium selenite, Sigma-Aldrich) and 5 ng/ml hydrocortisone. […] Then 75 μl of supernatant from each well was removed and the luciferase activity was determined by adding 25 μl of Steady-Glo luciferase assay reagent (Promega).
A first screen of the different γ-secretase prodrugs was performed in vitro to determine the cleavage rate of each compound and ex-vivo in mouse kidney tissues. Extracellular release of the γ-secretase inhibitor from prodrugs by human kidney cells (HEK293, HEK293-derived Notch-reporter 215/F2 cells28,39 and HK2 cells) as well as the rat brain-derived EC219 endothelial cells which express very high levels of APA and γ-GT activities were evaluated for liberating active inhibitors SecrI (8) or amine-SecrI (11a) (FIG. 2A).
All samples were analyzed using protein precipitation followed by LC-MS/MS analysis. […] One μL of the supernatant was analyzed by LC/MS. […]

γ-secretase = γ-secretase (Homo sapiens, UniProt P49768); assay: In vitro γ-secretase activity assay (cell-free); type: biochemical; conditions: HEK293 membrane fraction, recombinant APP substrate, Abeta ELISA
Description: The γ-secretase activity of the γ-secretase inhibiting alcohols of formula (A) of present invention was determined in cell-free in vitro assays where e.g., a cell lysate containing the γ-secretase complex is incubated with a suitable β-Amyloid Precursor Protein (APP)-derived substrate which is cleaved to the Abeta peptides. The amount of produced peptides can be determined with specific ELISA assays. Cell lines of neuronal origin secrete Abeta peptides which can be measured with the specific ELISA assay. Treatment with compounds which inhibit γ-secretase leads to a reduction of secreted Abeta thus providing a measure of inhibition.
The in vitro assay of γ-secretase activity uses a HEK293 membrane fraction as a source of γ-secretase and a recombinant APP substrate. Latter consist of the C-terminal 100 amino acids of human APP fused to a 6×Histidin tail for purification which is expressed in E. coli in a regulatable expression vector, e.g. pEt15. This recombinant protein corresponds to the truncated APP fragment which results after […] of the extracellular domain and which constitutes the γ-secretase substrate. […] The Abeta peptides which are produced by γ-secretase cleavage of the substrate are detected by specific ELISA assays as described (Brockhaus M et al, Neuroreport 9(7), 1481-1486 (1998).

SMILES	IC50 for blockade of the Notch pathway, range in words ([1]; DR215/F2 cell reporter assay)	IC50 ([1]; Homo sapiens, 215/F2 reporter cell line, 19 h, mean of at least 3 experiments)	hydrolysis by γ-GT (EC219 cells)	IC50 (γ-secretase)
C[C@H]1Oc2ccc(F)cc2N(CCOC(=O)NCCNC(=O)CC[C@H](N)C(=O)O)C(=O)[C@H]1NC(=O)[C@@](C)(O)C(=O)NCC(F)(F)C(F)(F)F [Compound 13b, (S)-2-Amino-5-(2-((2-((2R,3S)-7-fluoro-3-((S)-2-hydroxy-2-methyl-3-oxo-3-(2,2,3,3,3-pentafluoropropylamino)propanamido)-2-methyl-4-oxo-3,4-dihydrobenzo[b][1,4]oxazepin-5(2H)-yl)ethoxy)carbonylamino)ethylamino)-5-oxopentanoic acid hydrochloride]	μM range	1090 nM	also not hydrolyzed by γ-GT	
C[C@H]1Oc2ccc(F)cc2N(CCO)C(=O)[C@H]1NC(=O)C(C)(C)C(=O)NCC(F)(F)C(F)(F)F [Example 53, N-[(6R,7S)-2-Fluoro-9-(2-hydroxy-ethyl)-6-methyl-8-oxo-6,7,8,9-tetrahydro-5-oxa-9-aza-benzocyclohepten-7-yl]-2,2-dimethyl-N′-(2,2,3,3,3-pentafluoro-propyl)-malonamide]				90 nM
